Experimental data published in ChEMBL document CHEMBL3286248, “Easily accessible polycyclic amines that inhibit the wild-type and amantadine-resistant mutants of the M2 channel of influenza A virus” (J Med Chem, 2014).
Counter-ions that a name gives are not always drawn. Active and inactive are the calls of the source. The calls are words filed in the database; no cut-off is given here.

Tests used:
[1] = target: Matrix protein 2 (Influenza A virus (A/Udorn/307/1972(H3N2)), UniProt P0DOF8); type: cell membranes, Influenza A virus (A/udorn/1972(H3N2))
Matrix protein 2 (Influenza A virus (A/Udorn/307/1972(H3N2)), UniProt P0DOF8), sequence (P0DOF8 whole entry): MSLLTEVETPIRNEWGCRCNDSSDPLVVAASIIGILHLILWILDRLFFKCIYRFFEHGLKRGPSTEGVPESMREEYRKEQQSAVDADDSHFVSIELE

[2] = Cytotoxicity against MDCK cells assessed as alteration in cell morphology after 72 hrs; type: cell-based, Canis lupus familiaris; conditions: dog
[3] = test system: MDCK; type: cell-based, Canis lupus familiaris; conditions: dog, 72 h
[4] = test system: Influenza B virus; experiment: Antiviral activity against Influenza B virus (B/HK/5/72) infected in MDCK cells; type: functional, cell-based; conditions: B/Hong Kong/05/1972
[5] = target: Matrix protein 2 (Influenza A virus (A/Udorn/307/1972(H3N2))) (UniProt P0DOF8); type: cell membranes; conditions: Influenza A virus (A/udorn/1972(H3N2))
Matrix protein 2 (Influenza A virus (A/Udorn/307/1972(H3N2))), sequence (P0DOF8 whole entry): as above

| SMILES | IC50 [1] [µM] | MCC at 72 h [2] [µM] | CC50 [3] [µM] | Activity [4] | inhibition [5] |
| --- | --- | --- | --- | --- | --- |
| N=C(N)N1CC2C3CCC(C4CC34)C2C1 (stereo not given) | 1.64 | 100 | 41 | inactive |  |
| C1CC2C1C1CCC2C2CNCC12 (stereo not given) | 1.24 | 4 | 1.9 | inactive |  |
| N=C(N)N1CC2C3C=CC(C4C=CC43)C2C1 (stereo not given) | 4.93 | 20 | 9.4 | inactive |  |
| N=C(N)N1CC2C3C=CC(C4CC34)C2C1 (stereo not given) | 1.5 | 100 | 39 | inactive |  |
| C1=CC2C3CNCC3C1C1CC21 (stereo not given) | 2.92 | 100 | 54 | inactive |  |
| CC(N)C12CC3CC(CC(C3)C1)C2 (stereo not given) [RIMANTADINE HYDROCHLORIDE] |  |  | 230 | inactive |  |
| NC12CC3CC(CC(C3)C1)C2 [AMANTADINE] |  | ≥ 500 | > 500 | inactive |  |
| N=C(N)N1CC2C3CCC(C4CCC43)C2C1 (stereo not given) |  | 4 | 1.9 | inactive |  |
| CC12CC34CNCC35CC1(C)C(C)(C5)C2(C)C4 (stereo not given) |  | 100 | 49 | inactive |  |
| C1CC(N2CC3C4CCC(C5CC45)C3C2)CCN1 (stereo not given) |  | 20 | 9 | inactive | inactive |
| C1=CC2C1C1C=CC2C2CNCC12 (stereo not given) | 5.54 | 15 | 4.9 | inactive |  |
| C1CC2C3CNCC3C1C1CC21 (stereo not given) | 3.38 | 100 | 49 | inactive |  |
| CC12CC34CN(C(=N)N)CC35CC1(C)C(C)(C5)C2(C)C4 (stereo not given) |  | ≥ 4 | 15 | inactive |  |
| C1=CC2C3CC3C1C1CN(C3CCNCC3)CC21 (stereo not given) |  | 100 | 46 | inactive | inactive |
